# Values joined by “and” are separate entries in the source; they are usually repeats but may differ in a detail not shown here. Equal values may be shown once. Toxic doses and inconclusive results are not listed.
# System: CD2F1 mice, L1210 leukemia ip, survival T/C
# Test: NCI In Vivo Anticancer Drug Screen. Data for tumor model L1210 Leukemia (intraperitoneal) in CD2F1 (CDF1) mice
# Conditions: endpoint: mean survival time, higher = longer survival
# In short: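 Tumor-bearing mice (transplanted tumor) were split into treated and vehicle control groups, and the measured endpoint of each treated group was divided by that of its vehicle controls.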
# [1] = dose: 100.0 mg/kg/injection, schedule: Q04DX003 (ip), vehicle: saline with Tween-80
# [2] = dose: 200.0 mg/kg/injection, schedule: Q04DX003 (ip), vehicle: saline with Tween-80
# [3] = dose: 400.0 mg/kg/injection, schedule: Q04DX003 (ip), vehicle: saline with Tween-80
# [4] = dose: 200.0 mg/kg/injection, schedule: Q01DX009 (ip), vehicle: saline with Tween-80
# [5] = dose: 100.0 mg/kg/injection, schedule: Q01DX009 (ip), vehicle: saline with Tween-80
# [6] = dose: 400.0 mg/kg/injection, schedule: Q01DX009 (ip), vehicle: saline with Tween-80
# [7] = dose: 100.0 mg/kg/injection, schedule: Q01DX009 (ip), vehicle: other
# [8] = dose: 100.0 mg/kg/injection, schedule: Q01DX001 (ip), vehicle: saline with Tween-80
# [9] = dose: 12.5 mg/kg/injection, schedule: Q01DX009 (ip), vehicle: saline with Tween-80
# [10] = dose: 25.0 mg/kg/injection, schedule: Q01DX009 (ip), vehicle: saline with Tween-80
# [11] = dose: 50.0 mg/kg/injection, schedule: Q01DX009 (ip), vehicle: saline with Tween-80
smiles,measurement,setting,value
O=C(Nc1ccc(C2=NCCN2)cc1)c1ccc(C(=O)Nc2ccc(C3=NCCN3)cc2)c([N+](=O)[O-])c1,T/C,"dose: 5.0 mg/kg/injection, schedule: Q01DX007 (ip), vehicle: saline",124 % of control
same,T/C,"dose: 5.0 mg/kg/injection, schedule: Q03DX003 (ip), vehicle: saline",107 % of control
same,T/C,"dose: 5.0 mg/kg/injection, schedule: Q04DX003 (ip), vehicle: saline",112 % of control
same,T/C,"dose: 8.0 mg/kg/injection, schedule: Q01DX009 (ip), vehicle: saline",158 % of control
same,T/C,"dose: 10.0 mg/kg/injection, schedule: Q01DX007 (ip), vehicle: saline",155 % of control
same,T/C,"dose: 10.0 mg/kg/injection, schedule: Q01DX009 (ip), vehicle: saline",163 % of control
same,T/C,"dose: 10.0 mg/kg/injection, schedule: Q03DX003 (ip), vehicle: saline",113 % of control
same,T/C,"dose: 10.0 mg/kg/injection, schedule: Q04DX003 (ip), vehicle: saline",112 % of control
same,T/C,"dose: 16.0 mg/kg/injection, schedule: Q01DX009 (ip), vehicle: saline",271 % of control
same,T/C,"dose: 20.0 mg/kg/injection, schedule: Q01DX007 (ip), vehicle: saline",181 % of control
same,T/C,"dose: 20.0 mg/kg/injection, schedule: Q01DX009 (ip), vehicle: saline",225 % of control
same,T/C,"dose: 20.0 mg/kg/injection, schedule: Q04DX003 (ip), vehicle: saline",115 % of control
CNCCc1ccc2cc(OC)c(OC)cc2c1,T/C,"dose: 25.0 mg/kg/injection, schedule: Q01DX009 (ip), vehicle: saline sonified",104 % of control
same,T/C,"dose: 50.0 mg/kg/injection, schedule: Q01DX009 (ip), vehicle: saline sonified",104 % of control
same,T/C,"dose: 100.0 mg/kg/injection, schedule: Q01DX009 (ip), vehicle: saline sonified",104 % of control
COc1ccc(C=C2C(=O)C=CC2=O)cc1OC,T/C,"dose: 5.0 mg/kg/injection, schedule: Q04DX002 (ip), vehicle: saline with Tween-80",103 % of control
same,T/C,"dose: 10.0 mg/kg/injection, schedule: Q04DX002 (ip), vehicle: saline with Tween-80",103 % of control
CN(Cc1cnc2nc(N)nc(N)c2n1)c1ccc(C(=O)NC(CCC(=O)O)C(=O)O)cc1Br (stereo not drawn),T/C,"dose: 6.25 mg/kg/injection, schedule: Q01DX Z (ip), vehicle: saline",104 % of control
CCCC(=O)Nc1ccc([N+](=O)[O-])cc1OC,T/C,[1],96 % of control
same,T/C,[2],102 % of control
same,T/C,[3],104 % of control
CCCCCCCCCCCCCCCC(=O)N(CCC#N)CCC#N,T/C,[1],93 % of control
same,T/C,[4],97 % of control
same,T/C,[2],96 % of control
same,T/C,[3],109 % of control
C=CCOc1ccccc1C(C)=O,T/C,[5],104 % of control
same,T/C,[4],107 % of control
same,T/C,[6],107 % of control
CCOC(=O)C1C(=O)NC(=O)N1Cc1ccccc1 (stereo not drawn),T/C,"dose: 12.5 mg/kg/injection, schedule: Q01DX009 (ip), vehicle: other",100 % of control
same,T/C,"dose: 25.0 mg/kg/injection, schedule: Q01DX009 (ip), vehicle: other",104 % of control
same,T/C,"dose: 50.0 mg/kg/injection, schedule: Q01DX009 (ip), vehicle: other",100 % of control
same,T/C,[7],97 % of control
same,T/C,"dose: 200.0 mg/kg/injection, schedule: Q01DX009 (ip), vehicle: other",100 % of control
CC(=O)NC(C=O)C(O)C1OC(c2ccccc2)OCC1O (stereo not drawn),T/C,[8],97 % of control
same,T/C,[5],95 % of control
same,T/C,"dose: 200.0 mg/kg/injection, schedule: Q01DX001 (ip), vehicle: saline with Tween-80",97 % of control
same,T/C,[4],98 % of control
same,T/C,"dose: 400.0 mg/kg/injection, schedule: Q01DX001 (ip), vehicle: saline with Tween-80",94 % of control
same,T/C,[6],92 % of control
Nc1nc(N)c(-c2ccc(Cl)cc2)c(COc2ccc(C3(CCl)OCCO3)cc2)n1,T/C,"dose: 25.0 mg/kg/injection, schedule: Q01DX001 (ip), vehicle: saline with Tween-80",94 % of control
same,T/C,"dose: 50.0 mg/kg/injection, schedule: Q01DX001 (ip), vehicle: saline with Tween-80",102 % of control
same,T/C,[8],100 % of control
CC1Cc2c([nH]c3ccc(Cl)cc23)CN1 (stereo not drawn),T/C,"dose: 100.0 mg/kg/injection, schedule: Q04DX002 (ip), vehicle: saline with Tween-80",86 % of control
same,T/C,"dose: 200.0 mg/kg/injection, schedule: Q04DX002 (ip), vehicle: saline with Tween-80",89 % of control
N#CC(/C=C/c1ccccc1)Nc1ccccc1 (stereo not drawn),T/C,[5],89 % of control
same,T/C,"dose: 100.0 mg/kg/injection, schedule: Q04DX003 (ip), vehicle: saline sonified",100 % of control
same,T/C,[4],90 % of control
same,T/C,"dose: 200.0 mg/kg/injection, schedule: Q04DX003 (ip), vehicle: saline sonified",97 % of control
same,T/C,[6],89 % of control
same,T/C,"dose: 400.0 mg/kg/injection, schedule: Q04DX003 (ip), vehicle: saline sonified",96 % of control
NC(=O)c1csc(C2OC(COP(=O)(O)O)C(O)C2O)n1 (stereo not drawn),T/C,"dose: 200.0 mg/kg/injection, schedule: Q01DX005 (ip), vehicle: water",259 % of control
same,T/C,"dose: 400.0 mg/kg/injection, schedule: Q01DX005 (ip), vehicle: water",155 % of control and 183 % of control
same,T/C,"dose: 600.0 mg/kg/injection, schedule: Q01DX005 (ip), vehicle: water",160 % of control
same,T/C,"dose: 800.0 mg/kg/injection, schedule: Q01DX005 (ip), vehicle: water",196 % of control
CC(=O)OCC(=O)[C@@]1(O)CC[C@H]2[C@@H]3CCC4=CC(=O)C=C[C@]4(C)[C@@]3(F)[C@@H](O)C[C@@]21C,T/C,"dose: 12.5 mg/kg/injection, schedule: Q04DX003 (ip), vehicle: saline",104 % of control
same,T/C,"dose: 25.0 mg/kg/injection, schedule: Q04DX003 (ip), vehicle: saline",104 % of control
same,T/C,"dose: 50.0 mg/kg/injection, schedule: Q04DX003 (ip), vehicle: saline",107 % of control
Cc1ccc(C(=O)CC(O)(C(F)(F)F)C(F)(F)F)cc1,T/C,[7],106 % of control
same,T/C,"dose: 400.0 mg/kg/injection, schedule: Q01DX009 (ip), vehicle: other",112 % of control
Cn1c2nc3ccccc3c-2nc2ccccc21,T/C,"dose: 1.56 mg/kg/injection, schedule: Q01DX009 (ip), vehicle: water",100 % of control
same,T/C,"dose: 3.13 mg/kg/injection, schedule: Q01DX009 (ip), vehicle: water",93 % of control
same,T/C,"dose: 6.25 mg/kg/injection, schedule: Q01DX009 (ip), vehicle: water",88 % of control
same,T/C,"dose: 12.5 mg/kg/injection, schedule: Q01DX009 (ip), vehicle: water",89 % of control
same,T/C,"dose: 25.0 mg/kg/injection, schedule: Q01DX009 (ip), vehicle: Klucel (hydroxypropylcellulose) (HPC)",101 % of control
same,T/C,"dose: 25.0 mg/kg/injection, schedule: Q01DX009 (ip), vehicle: water",86 % of control and 89 % of control
same,T/C,"dose: 50.0 mg/kg/injection, schedule: Q01DX009 (ip), vehicle: Klucel (hydroxypropylcellulose) (HPC)",103 % of control
same,T/C,"dose: 100.0 mg/kg/injection, schedule: Q01DX009 (ip), vehicle: Klucel (hydroxypropylcellulose) (HPC)",105 % of control
same,T/C,"dose: 200.0 mg/kg/injection, schedule: Q01DX009 (ip), vehicle: Klucel (hydroxypropylcellulose) (HPC)",95 % of control
OC(c1ccccc1)(c1ccccc1)c1ccc(Cl)cc1,T/C,[5],97 % of control
same,T/C,[4],101 % of control
same,T/C,[6],101 % of control
CC1CCN(N=Nc2ccc(Br)cc2-c2nc(N)c3cc(Br)ccc3n2)CC1,T/C,"dose: 6.25 mg/kg/injection, schedule: Q01DX005 (ip), vehicle: other",92 % of control
same,T/C,"dose: 12.5 mg/kg/injection, schedule: Q01DX005 (ip), vehicle: other",103 % of control
same,T/C,"dose: 25.0 mg/kg/injection, schedule: Q01DX005 (ip), vehicle: other",95 % of control
same,T/C,"dose: 50.0 mg/kg/injection, schedule: Q01DX005 (ip), vehicle: other",92 % of control
same,T/C,"dose: 100.0 mg/kg/injection, schedule: Q01DX005 (ip), vehicle: other",92 % of control
Cn1c2nc(=O)n(-c3ccccc3)c(=O)c-2nc2c1CCCC2,T/C,"dose: 3.12 mg/kg/injection, schedule: Q01DX009 (ip), vehicle: saline with Tween-80",100 % of control
same,T/C,"dose: 6.25 mg/kg/injection, schedule: Q01DX009 (ip), vehicle: saline with Tween-80",100 % of control
same,T/C,[9],98 % of control
same,T/C,[10],101 % of control
same,T/C,[11],100 % of control
same,T/C,[5],106 % of control
O=C(Nc1nc2c(ccc3ccccc32)s1)Nc1ccccc1F,T/C,[11],94 % of control
same,T/C,[5],97 % of control
same,T/C,[4],105 % of control
BrCC1OCCCO1,T/C,[9],105 % of control
same,T/C,[10],111 % of control
same,T/C,[11],115 % of control

# Source: PubChem BioAssay AID256 (DTP/NCI, 2004)
